# Measurements from the supplement of paper PMC10307832.
# Legend:
# Test in all cases: relative viability (nuclei count vs DMSO), 5 days (fraction); higher = more cells survive
# HARA = tested on: HARA
# How it was run: (§1)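 Relative viability divides the nuclei count in treated wells by that in vehicle wells. Lung cancer cell lines were seeded in 1536-well plates, dosed by pin tool the next day, and fixed and stained after 5 days in one step with final 0.05% Triton X-100, 1% formaldehyde and 1 ug/ml Hoechst. Dosing was a single drug or a fixed anchor-drug dose plus five library-drug doses (not always all listed) in √10 steps, and values are medians of duplicate plates imaged at 4×.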
# 201T = tested on: 201T
# How it was run: as §1
# NCI-H661 = tested on: NCI-H661
# How it was run: as §1
# LCLC-103H = tested on: LCLC-103H
# How it was run: as §1
# SK-LU-1 = tested on: SK-LU-1
# How it was run: as §1
# ChaGo-K-1 = tested on: ChaGo-K-1
# How it was run: as §1
# H3255 = tested on: H3255
# How it was run: as §1
# COR-L 105 = tested on: COR-L 105
# How it was run: as §1
# NCI-H1975 = tested on: NCI-H1975
# How it was run: as §1
# NCI-H3122 = tested on: NCI-H3122
# How it was run: as §1
# HOP-62 = tested on: HOP-62
# How it was run: as §1
# HCC-827 = tested on: HCC-827
# How it was run: as §1
# NCI-H23 = tested on: NCI-H23
# How it was run: as §1
# NCI-H2126 = tested on: NCI-H2126
# How it was run: as §1
# NCI-H650 = tested on: NCI-H650
# How it was run: as §1
# NCI-H2405 = tested on: NCI-H2405
# How it was run: as §1
# NCI-H596 = tested on: NCI-H596
# How it was run: as §1
# PC-3 [JPC-3] = tested on: PC-3 [JPC-3]
# How it was run: as §1
# NCI-H727 = tested on: NCI-H727
# How it was run: as §1
# LOU-NH91 = tested on: LOU-NH91
# How it was run: as §1
# NCI-H2228 = tested on: NCI-H2228
# How it was run: as §1
# EKVX = tested on: EKVX
# How it was run: as §1
smiles,measurement,setting,value
Cc1csc(=NC2CCCCC2)n1/N=C/c1ccc(O)c(O)c1O [MIM1] + CS(=O)(=O)N1CCN(Cc2cc3nc(-c4cccc5[nH]ncc45)nc(N4CCOCC4)c3s2)CC1 [Pictilisib] (partner 1 µM),relative viability,HARA; first compound 0.2 µM,0.333
same,relative viability,HARA; first compound 0.6325 µM,0.328
same,relative viability,HARA; first compound 2 µM,0.476
same,relative viability,HARA; first compound 6.325 µM,0.307
same,relative viability,HARA; first compound 20 µM,0.124
same,relative viability,201T; first compound 0.2 µM,0.688
same,relative viability,201T; first compound 0.6325 µM,0.659
same,relative viability,201T; first compound 2 µM,0.645
same,relative viability,201T; first compound 6.325 µM,0.654
same,relative viability,201T; first compound 20 µM,0.61
same,relative viability,NCI-H661; first compound 0.2 µM,0.388
same,relative viability,NCI-H661; first compound 0.6325 µM,0.367
same,relative viability,NCI-H661; first compound 2 µM,0.357
same,relative viability,NCI-H661; first compound 6.325 µM,0.38
same,relative viability,NCI-H661; first compound 20 µM,0.345
same,relative viability,LCLC-103H; first compound 0.2 µM,0.721
same,relative viability,LCLC-103H; first compound 0.6325 µM,0.574
same,relative viability,LCLC-103H; first compound 2 µM,0.608
same,relative viability,LCLC-103H; first compound 6.325 µM,0.631
same,relative viability,LCLC-103H; first compound 20 µM,0.59
same,relative viability,SK-LU-1; first compound 0.2 µM,0.636
same,relative viability,SK-LU-1; first compound 0.6325 µM,0.594
same,relative viability,SK-LU-1; first compound 2 µM,0.625
same,relative viability,SK-LU-1; first compound 6.325 µM,0.466
same,relative viability,SK-LU-1; first compound 20 µM,0.354
same,relative viability,ChaGo-K-1; first compound 0.2 µM,0.876
same,relative viability,ChaGo-K-1; first compound 0.6325 µM,0.629
same,relative viability,ChaGo-K-1; first compound 2 µM,0.863
same,relative viability,ChaGo-K-1; first compound 6.325 µM,0.644
same,relative viability,ChaGo-K-1; first compound 20 µM,0.265
same,relative viability,H3255; first compound 0.2 µM,0.429
same,relative viability,H3255; first compound 0.6325 µM,0.54
same,relative viability,H3255; first compound 2 µM,0.459
same,relative viability,H3255; first compound 6.325 µM,0.478
same,relative viability,H3255; first compound 20 µM,0.416
same,relative viability,COR-L 105; first compound 0.2 µM,0.424
same,relative viability,COR-L 105; first compound 0.6325 µM,0.366
same,relative viability,COR-L 105; first compound 2 µM,0.344
same,relative viability,COR-L 105; first compound 6.325 µM,0.384
same,relative viability,COR-L 105; first compound 20 µM,0.291
same,relative viability,NCI-H1975; first compound 0.2 µM,0.275
same,relative viability,NCI-H1975; first compound 0.6325 µM,0.312
same,relative viability,NCI-H1975; first compound 2 µM,0.251
same,relative viability,NCI-H1975; first compound 6.325 µM,0.209
same,relative viability,NCI-H1975; first compound 20 µM,0.312
same,relative viability,NCI-H3122; first compound 0.2 µM,0.644
same,relative viability,NCI-H3122; first compound 0.6325 µM,0.529
same,relative viability,NCI-H3122; first compound 2 µM,0.701
same,relative viability,NCI-H3122; first compound 6.325 µM,0.578
same,relative viability,NCI-H3122; first compound 20 µM,0.394
same,relative viability,HOP-62; first compound 0.2 µM,0.803
same,relative viability,HOP-62; first compound 0.6325 µM,0.437
same,relative viability,HOP-62; first compound 2 µM,0.724
same,relative viability,HOP-62; first compound 6.325 µM,0.642
same,relative viability,HOP-62; first compound 20 µM,0.127
same,relative viability,HCC-827; first compound 0.2 µM,0.985
same,relative viability,HCC-827; first compound 0.6325 µM,0.936
same,relative viability,HCC-827; first compound 2 µM,0.947
same,relative viability,HCC-827; first compound 6.325 µM,0.618
same,relative viability,HCC-827; first compound 20 µM,0.664
same,relative viability,NCI-H23; first compound 0.2 µM,0.563
same,relative viability,NCI-H23; first compound 2 µM,0.517
same,relative viability,NCI-H23; first compound 6.325 µM,0.467
same,relative viability,NCI-H23; first compound 20 µM,0.192
same,relative viability,NCI-H2126; first compound 0.2 µM,0.516
same,relative viability,NCI-H2126; first compound 0.6325 µM,0.481
same,relative viability,NCI-H2126; first compound 2 µM,0.482
same,relative viability,NCI-H2126; first compound 6.325 µM,0.467
same,relative viability,NCI-H2126; first compound 20 µM,0.344
same,relative viability,NCI-H650; first compound 0.2 µM,0.988
same,relative viability,NCI-H650; first compound 0.6325 µM,0.944
same,relative viability,NCI-H650; first compound 2 µM,0.987
same,relative viability,NCI-H650; first compound 6.325 µM,0.975
same,relative viability,NCI-H650; first compound 20 µM,0.505
same,relative viability,NCI-H2405; first compound 0.2 µM,0.431
same,relative viability,NCI-H2405; first compound 0.6325 µM,0.52
same,relative viability,NCI-H2405; first compound 2 µM,0.506
same,relative viability,NCI-H2405; first compound 6.325 µM,0.418
same,relative viability,NCI-H2405; first compound 20 µM,0.546
same,relative viability,NCI-H596; first compound 0.2 µM,0.419
same,relative viability,NCI-H596; first compound 0.6325 µM,0.457
same,relative viability,NCI-H596; first compound 2 µM,0.406
same,relative viability,NCI-H596; first compound 6.325 µM,0.352
same,relative viability,NCI-H596; first compound 20 µM,0.402
same,relative viability,PC-3 [JPC-3]; first compound 0.2 µM,0.759
same,relative viability,PC-3 [JPC-3]; first compound 0.6325 µM,0.763
same,relative viability,PC-3 [JPC-3]; first compound 2 µM,0.707
same,relative viability,PC-3 [JPC-3]; first compound 6.325 µM,0.619
same,relative viability,PC-3 [JPC-3]; first compound 20 µM,0.459
same,relative viability,NCI-H727; first compound 0.2 µM,0.415
same,relative viability,NCI-H727; first compound 0.6325 µM,0.352
same,relative viability,NCI-H727; first compound 2 µM,0.35
same,relative viability,NCI-H727; first compound 6.325 µM,0.355
same,relative viability,NCI-H727; first compound 20 µM,0.122
same,relative viability,LOU-NH91; first compound 0.2 µM,0.534
same,relative viability,LOU-NH91; first compound 0.6325 µM,0.524
same,relative viability,LOU-NH91; first compound 2 µM,0.47
same,relative viability,LOU-NH91; first compound 6.325 µM,0.506
same,relative viability,LOU-NH91; first compound 20 µM,0.382
same,relative viability,NCI-H2228; first compound 0.2 µM,0.435
same,relative viability,NCI-H2228; first compound 0.6325 µM,0.316
same,relative viability,NCI-H2228; first compound 2 µM,0.4
same,relative viability,NCI-H2228; first compound 6.325 µM,0.244
same,relative viability,NCI-H2228; first compound 20 µM,0.158
same,relative viability,EKVX; first compound 0.2 µM,0.477
same,relative viability,EKVX; first compound 0.6325 µM,0.365
same,relative viability,EKVX; first compound 2 µM,0.463
same,relative viability,EKVX; first compound 6.325 µM,0.322
same,relative viability,EKVX; first compound 20 µM,0.351
